Data taken from BigSolDB 2.1.

NCC(CC(=O)O)c1ccc(Cl)cc1 (configuration not stated)
solubility (mole fraction)
Conditions	273.15 K	278.15 K	283.15 K	288.15 K	293.15 K	298.15 K	303.15 K	308.15 K	313.15 K	318.15 K
in 1,4-dioxane	–	–	–	0.000519	0.000568	0.000632	0.000704	0.000788	0.000888	0.000996
in 2-butanone	0.000439	0.000475	0.000522	0.000579	0.000639	0.000703	0.000792	0.0009	0.00101	0.00112
in DMAc	0.0934	0.0945	0.0957	0.0969	0.0982	0.0995	0.101	0.102	0.104	0.105
in DMF	0.0998	0.101	0.102	0.104	0.106	0.108	0.11	0.112	0.115	0.117
in acetone	0.000228	0.000236	0.000246	0.000258	0.000273	0.000289	0.000305	0.000322	0.00034	0.000358
in ethanol	1.95e-05	2.23e-05	2.58e-05	3e-05	3.4e-05	3.85e-05	4.33e-05	4.86e-05	5.39e-05	5.86e-05
in ethyl acetate	0.00412	0.00419	0.00427	0.00436	0.00446	0.00456	0.00467	0.00476	0.00488	0.00499
in isopropanol	3.16e-05	3.67e-05	4.17e-05	4.74e-05	5.35e-05	5.99e-05	6.67e-05	7.41e-05	8.21e-05	9.04e-05
in methanol	0.000109	0.000116	0.000124	0.000133	0.000143	0.000153	0.000162	0.000173	0.000186	0.000198
in n-butanol	5.73e-05	6.12e-05	6.61e-05	7.11e-05	7.68e-05	8.34e-05	9.06e-05	9.72e-05	0.000104	0.000113
in n-propanol	2.57e-05	3.01e-05	3.47e-05	4.03e-05	4.61e-05	5.35e-05	6.1e-05	6.85e-05	7.63e-05	8.77e-05
in toluene	0.0054	0.00569	0.00601	0.00639	0.00673	0.00709	0.00749	0.0079	0.00831	0.00866
